Source: patent US20210317140A1, “Heterocyclic Compounds and Methods of Use” (MEDIVATION TECHNOLOGIES, INC, priority 2013, published 2021)

What was measured:
Format in all cases: biochemical
BMX/ETK = biological target: T1, BMX/ETK (Homo sapiens, UniProt P51813); assay: BMX/ETK kinase profiling (BTK protocol); settings: for BMX/ETK @ 0.3 μM (% Inh): 0.3 μM compound; for IC50: 10 dose IC50
T1 construct: purchased Reaction Biology Corporation
T1 sequence (P51813 1-675): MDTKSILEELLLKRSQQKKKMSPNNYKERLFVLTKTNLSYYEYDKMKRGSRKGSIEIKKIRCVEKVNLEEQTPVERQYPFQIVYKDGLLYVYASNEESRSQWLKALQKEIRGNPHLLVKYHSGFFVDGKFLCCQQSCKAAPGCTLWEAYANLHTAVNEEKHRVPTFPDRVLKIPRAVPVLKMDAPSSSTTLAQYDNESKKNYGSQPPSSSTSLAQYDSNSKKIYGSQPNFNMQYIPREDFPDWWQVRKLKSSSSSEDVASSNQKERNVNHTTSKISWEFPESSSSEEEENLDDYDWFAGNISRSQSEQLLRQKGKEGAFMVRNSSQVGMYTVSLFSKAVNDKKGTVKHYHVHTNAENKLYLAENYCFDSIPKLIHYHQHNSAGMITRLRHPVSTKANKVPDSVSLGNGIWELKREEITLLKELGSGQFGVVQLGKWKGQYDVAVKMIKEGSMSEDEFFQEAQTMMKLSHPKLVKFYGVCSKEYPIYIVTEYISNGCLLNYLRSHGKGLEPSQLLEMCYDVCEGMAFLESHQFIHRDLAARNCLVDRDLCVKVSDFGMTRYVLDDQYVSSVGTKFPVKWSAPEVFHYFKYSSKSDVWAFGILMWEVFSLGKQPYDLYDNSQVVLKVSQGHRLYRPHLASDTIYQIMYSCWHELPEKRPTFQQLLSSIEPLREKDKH
Procedure: BTK assay: In vitro profiling protein kinases was performed using the “HotSpot” assay platform. Briefly, specific kinase/substrate pairs along with required cofactors were prepared in reaction buffer. Compounds were prepared as 10 mM stock solutions in DMSO. Compounds were delivered into the reaction, followed 15-20 minutes later by addition of a mixture of ATP (Sigma, St. Louis Mo.) and ^33P ATP (Perkin Elmer, Waltham Mass.) to a final concentration of 10 μM. Reactions were carried out at RT for 120 min, followed by spotting of the reactions onto P81 ion exchange filter paper (Whatman Inc., Piscataway, N.J.). Unbound phosphate was removed by extensive washing of filters in 0.75% Phosphoric acid. […] IC50 values and curve fits were obtained using Prism (GraphPad Software). Buffer Conditions: 20 mM Hepes (pH 7.5), 10 mM MgCl2, 1 mM EGTA, 0.02% Brij35, 0.02 mg/mL BSA, 0.1 mM Na3VO4, 2 mM DTT, 1% DMSO.
Compounds of the invention were profiled in a 10 dose IC50 panel against BMX/ETK, ITK and TEC kinases, provided by Reaction Biology Corporation, applied to the BTK protocol provided in Example B1.

PI3Kγ = biological target: T2, PI3Kγ (Homo sapiens, UniProt P48736); assay: PI3Kγ isoform profiling (PI3Kδ protocol); settings: for PI3Kγ @ 0.3 μM (% Inh): 0.3 μM compound; for IC50: 10 dose IC50
T2 construct: purchased Reaction Biology Corporation
Excerpt: (§1) PI3Kδ assay: The PIP3 product is detected by displacement of biotin-PIP3 from an energy transfer complex consisting of Europium labeled anti-GST monoclonal antibody, a GST-tagged pleckstrin homology (PH) domain, biotinylated PIP3 and Streptavidin-Allophycocyanin (APC). Excitation of Europium in the complex results in an energy transfer to the APC and a fluorescent emission at 665 nm. The PIP3 product formed by PI 3-Kinase(h) activity displaces biotin-PIP3 from the complex resulting in a loss of energy transfer and thus a decrease in signal. This is a 3-step reaction: First, the kinase reaction with PIP2 substrate is carried out in the presence of ATP (10 μM), and the reaction is quenched with stop Solution, and then finally detect by adding Detection Mixture followed by incubation (10 min). Reaction procedure: 1) Prepare substrate in freshly prepared Reaction Buffer. 2) Deliver kinase into the substrate solution and gently mix. 3) Deliver compounds in 100% DMSO (1 μM) into the kinase reaction mixture by Acoustic technology (Echo550; nanoliter range), incubate for 10 min at RT. 4) Deliver ATP into the reaction mixture to initiate the reaction. 5) Incubate for 30 min at 30° C. 6) Quench the reaction with Stop Solution. 7) Add Detection Mixture, and incubate for overnight. 8) Measure HTRF: Ex=320 nm, ratio of Em=615 nm and Em=665 nm. The emission ratio is converted into μM PIP3 production based on PIP3 standard curves. The nonlinear regression to obtain the standard curve and IC50 values are performed using Graphpad Prism software. Assay Buffer: HEPES 50 mM (pH7.0), NaN3 0.02%, BSA 0.01%, Orthovanadate 0.1 mM, 1% DMSO. Detection buffer: HEPES 10 mM (pH7.0), BSA 0.02%, KF 0.16 M, EDTA 4 mM. Substrate: 10 μM PIP2 substrate (PI(4,5)P2).
(§2) Compounds of the invention were profiled in a 10 dose IC50 panel against PI3Kα, PI3Kβ, and PI3Kγ kinases, provided by Reaction Biology Corporation, applied to the PI3Kδ protocol provided in Example B1.

PI3Kα = biological target: T3, PI3Kα (Homo sapiens, UniProt P42336); assay: PI3Kα isoform profiling (PI3Kδ protocol); settings: for IC50: 10 dose IC50
T3 construct: purchased Reaction Biology Corporation
Excerpt: as §1, §2

PI3Kδ = biological target: T4, PI3Kδ (Homo sapiens, UniProt O00329); assay: PI3Kδ kinase assay (HTRF, PIP3 detection); settings: for PI3Kδ @ 0.1 μM (% Inh): 0.1 μM compound; for PI3Kδ @ 0.1 μM (% Inh) / PI3Kδ @ 1 μM (% Inh) / PI3Kδ @ 0.01 μM (% Inh): 10 μM ATP; for PI3Kδ @ 1 μM (% Inh): 1 μM compound; for IC50: 10 dose IC50, 10 μM ATP; for PI3Kδ @ 0.01 μM (% Inh): 0.01 μM compound
T4 construct: purchased Reaction Biology Corporation
In short: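 10-dose HTRF assay; kinase preincubated with compound 10 min at RT, then reacted with 10 μM PIP2 and 10 μM ATP for 30 min at 30 °C in HEPES pH 7.0 buffer. PIP3 product displaces biotin-PIP3 from the Eu/APC complex; signal converted to PIP3 via standard curve, IC50 by nonlinear regression.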

T2 sequence (P48736 whole entry, canonical isoform): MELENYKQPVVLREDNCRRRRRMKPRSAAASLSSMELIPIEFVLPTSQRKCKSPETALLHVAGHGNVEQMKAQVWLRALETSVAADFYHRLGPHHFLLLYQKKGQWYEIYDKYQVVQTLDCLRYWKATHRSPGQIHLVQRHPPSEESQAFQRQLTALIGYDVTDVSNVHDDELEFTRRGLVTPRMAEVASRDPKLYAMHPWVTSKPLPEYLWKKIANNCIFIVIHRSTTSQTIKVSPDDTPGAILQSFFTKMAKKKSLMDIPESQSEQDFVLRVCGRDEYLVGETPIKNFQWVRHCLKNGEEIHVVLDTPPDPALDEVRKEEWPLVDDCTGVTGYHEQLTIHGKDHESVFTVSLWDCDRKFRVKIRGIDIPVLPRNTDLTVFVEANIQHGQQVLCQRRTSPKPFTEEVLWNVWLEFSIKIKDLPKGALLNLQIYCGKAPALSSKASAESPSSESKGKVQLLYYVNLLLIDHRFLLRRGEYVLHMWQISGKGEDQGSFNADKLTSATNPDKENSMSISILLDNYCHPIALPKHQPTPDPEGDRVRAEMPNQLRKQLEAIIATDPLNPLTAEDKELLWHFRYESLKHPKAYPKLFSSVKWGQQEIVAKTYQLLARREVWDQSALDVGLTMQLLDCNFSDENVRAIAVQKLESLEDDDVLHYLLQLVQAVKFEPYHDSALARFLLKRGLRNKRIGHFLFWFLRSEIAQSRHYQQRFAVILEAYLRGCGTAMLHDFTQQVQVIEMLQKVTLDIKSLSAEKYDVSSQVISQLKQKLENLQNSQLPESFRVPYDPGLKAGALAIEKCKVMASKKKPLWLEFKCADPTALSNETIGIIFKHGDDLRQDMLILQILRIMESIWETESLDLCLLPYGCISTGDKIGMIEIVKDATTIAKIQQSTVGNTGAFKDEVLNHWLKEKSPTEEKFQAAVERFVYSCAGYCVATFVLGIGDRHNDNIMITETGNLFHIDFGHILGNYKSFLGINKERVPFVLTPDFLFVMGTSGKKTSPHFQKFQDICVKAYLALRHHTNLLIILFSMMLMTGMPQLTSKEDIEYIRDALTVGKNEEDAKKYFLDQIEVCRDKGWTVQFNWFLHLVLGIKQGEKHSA
T4 sequence (O00329 whole entry): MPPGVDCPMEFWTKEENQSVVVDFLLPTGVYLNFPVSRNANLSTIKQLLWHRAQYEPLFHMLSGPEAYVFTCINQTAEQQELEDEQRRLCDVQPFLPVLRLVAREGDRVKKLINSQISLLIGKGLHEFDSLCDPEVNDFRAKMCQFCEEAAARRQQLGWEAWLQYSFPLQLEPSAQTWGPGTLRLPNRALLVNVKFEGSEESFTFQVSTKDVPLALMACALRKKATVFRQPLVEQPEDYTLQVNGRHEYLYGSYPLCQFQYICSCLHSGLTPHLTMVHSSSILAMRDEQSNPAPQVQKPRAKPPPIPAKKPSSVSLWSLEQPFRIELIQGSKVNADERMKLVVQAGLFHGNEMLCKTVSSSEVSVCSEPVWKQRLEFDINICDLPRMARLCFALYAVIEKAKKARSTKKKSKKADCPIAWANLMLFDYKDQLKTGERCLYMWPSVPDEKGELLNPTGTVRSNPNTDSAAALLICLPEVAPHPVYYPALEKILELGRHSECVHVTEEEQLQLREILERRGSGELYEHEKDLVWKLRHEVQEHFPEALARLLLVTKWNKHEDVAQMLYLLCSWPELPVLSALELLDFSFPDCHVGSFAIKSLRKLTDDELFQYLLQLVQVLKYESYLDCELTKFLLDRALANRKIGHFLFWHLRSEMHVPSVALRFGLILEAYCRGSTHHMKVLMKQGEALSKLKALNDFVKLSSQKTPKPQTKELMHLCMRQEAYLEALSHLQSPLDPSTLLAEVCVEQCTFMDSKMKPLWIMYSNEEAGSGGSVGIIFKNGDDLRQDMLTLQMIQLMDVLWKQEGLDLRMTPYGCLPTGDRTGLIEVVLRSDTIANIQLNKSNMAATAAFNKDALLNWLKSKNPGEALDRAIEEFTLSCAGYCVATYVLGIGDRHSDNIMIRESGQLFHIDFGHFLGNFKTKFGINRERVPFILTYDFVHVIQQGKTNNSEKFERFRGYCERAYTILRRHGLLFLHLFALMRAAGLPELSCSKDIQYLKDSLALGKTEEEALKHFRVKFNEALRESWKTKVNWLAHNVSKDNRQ
T4 sequence (P27986 whole entry partner): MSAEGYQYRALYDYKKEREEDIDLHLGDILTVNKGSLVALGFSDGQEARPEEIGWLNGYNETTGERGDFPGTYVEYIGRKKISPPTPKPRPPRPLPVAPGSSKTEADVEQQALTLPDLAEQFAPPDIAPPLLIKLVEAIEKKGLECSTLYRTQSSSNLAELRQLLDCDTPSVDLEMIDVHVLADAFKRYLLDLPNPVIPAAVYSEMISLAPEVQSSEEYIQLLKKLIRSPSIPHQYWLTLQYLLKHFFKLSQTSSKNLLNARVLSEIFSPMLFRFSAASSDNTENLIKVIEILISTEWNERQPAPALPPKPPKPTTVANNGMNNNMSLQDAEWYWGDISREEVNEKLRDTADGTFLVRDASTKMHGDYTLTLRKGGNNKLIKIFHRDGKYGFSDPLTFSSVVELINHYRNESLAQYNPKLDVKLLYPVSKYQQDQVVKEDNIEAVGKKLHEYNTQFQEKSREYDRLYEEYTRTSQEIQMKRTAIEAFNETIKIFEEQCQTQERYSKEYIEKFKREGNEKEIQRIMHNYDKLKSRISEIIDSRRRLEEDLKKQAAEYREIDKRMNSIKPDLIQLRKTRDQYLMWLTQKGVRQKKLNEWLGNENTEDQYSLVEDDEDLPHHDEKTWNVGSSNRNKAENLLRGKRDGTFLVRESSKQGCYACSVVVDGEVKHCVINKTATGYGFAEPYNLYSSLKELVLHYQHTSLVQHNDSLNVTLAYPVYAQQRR
T3 sequence (P42336 whole entry, canonical isoform): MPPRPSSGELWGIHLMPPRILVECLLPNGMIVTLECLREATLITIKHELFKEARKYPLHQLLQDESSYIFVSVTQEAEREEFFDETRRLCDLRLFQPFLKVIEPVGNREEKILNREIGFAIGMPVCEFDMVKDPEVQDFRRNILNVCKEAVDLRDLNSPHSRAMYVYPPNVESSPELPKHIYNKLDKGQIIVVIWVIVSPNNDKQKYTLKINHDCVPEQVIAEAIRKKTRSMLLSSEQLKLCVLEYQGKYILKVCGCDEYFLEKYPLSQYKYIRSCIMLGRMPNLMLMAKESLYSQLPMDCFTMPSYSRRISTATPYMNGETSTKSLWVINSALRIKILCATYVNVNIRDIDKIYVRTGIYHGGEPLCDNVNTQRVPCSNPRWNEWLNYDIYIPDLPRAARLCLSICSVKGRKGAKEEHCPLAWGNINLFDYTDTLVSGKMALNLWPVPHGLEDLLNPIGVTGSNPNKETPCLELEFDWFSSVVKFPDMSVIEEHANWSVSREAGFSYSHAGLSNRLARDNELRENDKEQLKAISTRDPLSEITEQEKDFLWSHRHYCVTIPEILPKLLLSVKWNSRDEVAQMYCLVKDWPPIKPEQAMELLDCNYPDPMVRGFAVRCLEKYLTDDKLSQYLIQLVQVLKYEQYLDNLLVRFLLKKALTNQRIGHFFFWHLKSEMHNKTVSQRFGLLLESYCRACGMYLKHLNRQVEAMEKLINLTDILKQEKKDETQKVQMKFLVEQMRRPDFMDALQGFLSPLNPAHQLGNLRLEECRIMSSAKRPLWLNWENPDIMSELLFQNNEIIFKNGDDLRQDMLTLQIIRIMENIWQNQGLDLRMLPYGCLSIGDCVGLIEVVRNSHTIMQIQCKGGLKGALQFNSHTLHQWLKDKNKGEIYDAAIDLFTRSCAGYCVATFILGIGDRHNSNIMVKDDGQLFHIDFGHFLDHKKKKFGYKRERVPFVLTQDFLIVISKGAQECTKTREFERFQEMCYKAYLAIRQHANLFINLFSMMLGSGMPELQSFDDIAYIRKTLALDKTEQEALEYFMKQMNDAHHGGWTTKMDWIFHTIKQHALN
T3 sequence (P27986 whole entry partner, canonical isoform): as the sequence (P27986 whole entry partner) above

| Structure (SMILES) | BMX/ETK @ 0.3 μM (% Inh) (BMX/ETK) | PI3Kγ @ 0.3 μM (% Inh) (PI3Kγ) | IC50 (PI3Kα) [nM] | PI3Kδ @ 0.1 μM (% Inh) (PI3Kδ) | PI3Kδ @ 1 μM (% Inh) (PI3Kδ) | IC50 (PI3Kδ) [nM] | IC50 (BMX/ETK) [nM] | IC50 (PI3Kγ) [nM] | PI3Kδ @ 0.01 μM (% Inh) (PI3Kδ) | PI3Kα @ 0.3 μM (% Inh) (PI3Kα; 0.3 μM compound) |
| --- | --- | --- | --- | --- | --- | --- | --- | --- | --- | --- |
| Nc1ncnc2c1c(-c1ccc(F)c(O)c1)nn2C1CCc2ccccc2C1 (single isomer, unassigned) [Compound No. 26a, 5-(4-amino-1-(1,2,3,4-tetrahydronaphthalen-2-yl)-1H-pyrazolo[3,4-d]pyrimidin-3-yl)-2-fluorophenol] |  |  | 143 | 39.35 |  | 114 | 3.1 | 405 |  |  |
| Nc1ncnc2c1c(-c1cc(O)c(F)c(F)c1)nn2C1Cc2ccccc2C1 [Compound No. 81, 5-[4-amino-1-(2,3-dihydro-1H-inden-2-yl)-1H-pyrazolo[3,4-d]pyrimidin-3-yl]-2,3-difluorophenol] | 85.6 | 68.03 | 21.1 | 87.14 | 91.62 | 3.5 |  |  |  |  |
| Nc1ncnc2c1c(-c1ccc(F)c(O)c1)nn2C1Cc2ccccc2C1 [Compound No. 29, 5-(4-amino-1-indan-2-yl-pyrazolo[3,4-d]pyrimidin-3-yl)-2-fluoro-phenol] |  |  | 73.1 | 61.73 |  | 61.3 | 0.8 | 196 |  |  |
| COc1cc(-c2nn(C3Cc4ccccc4C3)c3ncnc(N)c23)ccc1C [Compound No. 49, 1-(2,3-dihydro-1H-inden-2-yl)-3-(3-methoxy-4-methylphenyl)-1H-pyrazolo[3,4-d]pyrimidin-4-amine] | 75.85 | 30.41 | 504 | 57.87 | 89.73 | 119 |  |  |  |  |
| Nc1ncnc2c1c(-c1ccc(Cl)c(O)c1)cn2C1Cc2ccccc2C1 [Compound No. 93, 5-[4-amino-7-(2,3-dihydro-1H-inden-2-yl)-7H-pyrrolo[2,3-d]pyrimidin-5-yl]-2-chlorophenol] | 110.06 | 72.89 | 50.9 | 59.57 |  | 21.2 |  |  | 24.46 |  |
| Nc1ncnc2c1c(-c1cc(O)cc(F)c1)cn2C1Cc2ccccc2C1 [Compound No. 63, 3-[4-amino-7-(2,3-dihydro-1H-inden-2-yl)-7H-pyrrolo[2,3-d]pyrimidin-5-yl]-5-fluorophenol] | 94.69 | 33.44 | 74.7 | 81.43 | 92.56 | 10.4 |  |  |  |  |
| Nc1ncnc2c1c(-c1ccc(F)c(O)c1)nn2C1CCc2ccccc2C1 (single isomer, unassigned) [Compound No. 26b, 5-(4-amino-1-(1,2,3,4-tetrahydronaphthalen-2-yl)-1H-pyrazolo[3,4-d]pyrimidin-3-yl)-2-fluorophenol] |  |  | 161 | 47.94 |  | 55.2 | 6.2 | 455 |  |  |

Second part, the molecule after the results:

| BMX/ETK @ 0.3 μM (% Inh) (BMX/ETK) | PI3Kγ @ 0.3 μM (% Inh) (PI3Kγ) | IC50 (PI3Kα) [nM] | PI3Kδ @ 0.1 μM (% Inh) (PI3Kδ) | PI3Kδ @ 1 μM (% Inh) (PI3Kδ) | IC50 (PI3Kδ) [nM] | IC50 (BMX/ETK) [nM] | IC50 (PI3Kγ) [nM] | PI3Kδ @ 0.01 μM (% Inh) (PI3Kδ) | PI3Kα @ 0.3 μM (% Inh) (PI3Kα; 0.3 μM compound) | Structure (SMILES) |
| --- | --- | --- | --- | --- | --- | --- | --- | --- | --- | --- |
| 74.27 | 30.85 | 71.1 | 96.89 | 100.0 | 8 |  |  |  |  | Nc1ncnc2c1c(-c1cc(O)cc(F)c1)nn2C1Cc2ccc(F)cc2C1 (stereo not shown) [compound 57, 3-[4-amino-1-(5-fluoro-2,3-dihydro-1H-inden-2-yl)-1H-pyrazolo[3,4-d]pyrimidin-3-yl]-5-fluorophenol] |
| 90.55 | 45.49 | 56.5 |  |  | 12.9 |  |  |  |  | Nc1ncnc2c1c(-c1cc(O)c(Cl)c(Cl)c1)cn2C1Cc2ccccc2C1 [Compound No. 107, 5-[4-amino-7-(2,3-dihydro-1H-inden-2-yl)-7H-pyrrolo[2,3-d]pyrimidin-5-yl]-2,3-dichlorophenol] |
| 107.37 | 57.52 | 70.1 | 71.71 |  | 44.7 |  |  | 29.01 |  | Nc1ncnc2c1c(-c1ccc(Cl)c(O)c1F)nn2C1Cc2ccccc2C1 [Compound No. 100, 3-[4-amino-1-(2,3-dihydro-1H-inden-2-yl)-1H-pyrazolo[3,4-d]pyrimidin-3-yl]-6-chloro-2-fluorophenol] |
|  |  | 20.1 |  |  | 8.6 | 184 | 122 |  |  | Nc1ncnc2c1c(-c1cc(O)cc(F)c1)nn2C1CCc2ccccc2C1 (stereo not shown) [compound 6, 3-(4-amino-1-(1,2,3,4-tetrahydronaphthalen-2-yl)-1H-pyrazolo[3,4-d]pyrimidin-3-yl)-5-fluorophenol] |
| 73.26 | 19.7 |  | 18.95 |  | 108 |  |  |  | 33.14 | Nc1ncnc2c1c(-c1ccc3cc[nH]c3c1)nn2C1CCc2ccccc2C1 (racemic) [compound 18, 3-(1H-indol-6-yl)-1-(1,2,3,4-tetrahydronaphthalen-2-yl)-1H-pyrazolo[3,4-d]pyrimidin-4-amine] |
